Measured values: US7148237B2, “Nitrogen-containing heteroaryl compounds having HIV integrase inhibitory activity” (Shionogi & Co., Ltd., priority 2001, dated 2006)

How the values were obtained:
[1] = target: integrase (Human immunodeficiency virus type 1 group M subtype B, UniProt P04585); experiment: Integrase inhibition assay (microtiter plate strand transfer, substrate DNA/target DNA, anti-digoxigenin ELISA readout); assay type: biochemical; conditions: concentration of the compound at percent inhibition 50%; OD at 405 nm
Description: The inhibitory activities against integrase of the compounds in the present invention have been determined by the assay described below.
Substrate DNA and target DNA, which sequences were indicated below, were synthesized by Amersham Pharmacia Biotech and dissolved in KTE buffer (composition: 100 mM KCl, 1 mM EDTA, 10 mM Tris-HCl (pH 7.6)) at concentration of 2 pmol/μl and 5 pmol/μl, respectively. The DNA solutions were annealed with each complement by slowly cooling after heating.
Streptavidin, obtained from Vector Laboratories, was dissolved in 0.1 M carbonate buffer (composition: 90 mM Na2CO3, 10 mM NaHCO3) at concentration of 40 μg/ml. After coating each well of microtiter plates (obtained from NUNC) with 50 μl of the above solution at 4° C. over night, each well was washed twice with PBS (composition: […], 0.27 mM KCl, 0.43 mM Na2HPO4, 0.14 mM KH2PO4) and blocked with 300 μL of 1% skim milk in PBS for 30 min. Additionally, each well was washed twice with PBS and added 50 μl of substrate DNA solution (2 pmol/μl). The microtiter plates were kept at room temperature for 30 min. Then, each well was washed twice with PBS and once with H2O.
Subsequently, in the each well prepared above were added 45 μl of the reaction buffer prepared from 12 μl of the buffer (composition: 150 mM MOPS (pH 7.2), 75 mM MnCl2, 50 mM 2-mercaptoethanol, 25% glycerol, 500 μg/ml bovine serum albumin-fraction V), 1 μl of target DNA (5 pmol/μl), and 32 μl of the distilled water. Additionally, 6 μl of either a test compound in DMSO or DMSO for positive control (PC) was mixed with the above reaction buffer, then 9 μl of an integrase solution (30 pmol) was added and mixed well. In the well of negative control (NC) was added 9 μl of the integrase dilution buffer (composition: 20 mM MOPS (pH7.2), 400 mM potassium glutamate, 1 mM EDTA, 0.1% NP-40, 20% glycerol, 1 mM DTT, 4 M urea).
The microtiter plates were incubated at 30° C. for 1 hour. The reaction solution was removed and each well was washed twice with PBS. Subsequently, each well of the microtiter plates was filled with 100 μl of anti-digoxigenin antibody labeled with alkaline phosphatase (Sheep Fab fragment: obtained from Boehringer) and incubated at 30° C. for 1 hour. Then, each well was washed twice with 0.05% Tween20 in PBS and once with PBS. Next, 150 μl of the Alkaline phosphatase reaction buffer (composition: 10 mM p-Nitrophenylphosphate (obtained from Vector Laboratories), 5 mM MgCl2, 100 mM NaCl, 100 mM Tris-HCl (pH 9.5)) was added in each well. The microtiter plates were incubated at 30° C. for 2 hours and the reaction was terminated by the addition of 50 μl of 1 N NaOH solution. The optical density (OD) at 405 nm of each well was measured and the percent inhibition was determined by the following expression. The percent inhibition (%)=100[1−{(C abs.−NC abs.)/(PC abs.−NC abs.)}] • C abs.; the OD of the well of the • NC abs.: the OD of the negative control (NC) • PC abs.: the OD of the positive control (PC)
When the percent inhibition (%) is X % at the concentration of x μg/ml and the percent inhibition (%) is Y % at the concentration of y μg/ml, one of which is more than 50% and the other is less than 50%, IC50 can be determined by the following expression. IC50(μg/ml)=x−{(X−50)(x−y)/(X−Y)}

Compound | melting point | IC50 [1]
CCOC(=O)c1cc(CC)c2cc(Cc3ccc(F)cc3)cnc2c1O | 78 to 80 °C | 
O=C(O)c1ccc2[nH]c(CCc3ccc(F)cc3)nc2c1O | 152 to 155 °C | 
O=C(c1ccccc1)c1cc(C(=O)O)c2cc(Cc3ccc(F)cc3)cnc2c1O | 220 to 223 °C | 
COC(=O)c1cc(C(=O)Nc2ccccn2)c2cc(Cc3ccc(F)cc3)cnc2c1O | 190 to 194 °C | 
CCn1c(C)nc2c(O)c(-c3ncc(Cc4ccc(F)cc4)o3)ccc21 | 150 to 151 °C | 
O=C(c1ccc(Cc2ccc(F)cc2)o1)c1cc(Cl)c2cccnc2c1O | 126 to 128 °C | 
COC(=O)c1cc(Cl)c2[nH]c(Cc3ccc(F)cc3)nc2c1O [Compound I-1] | 257 to 260 °C | 1610 nM
COC(=O)c1cc(Cl)c2c(nc(Cc3ccc(F)cc3)n2C)c1O [Compound I-6] | 198 to 201 °C | 1270 nM
O=C(c1cc(Cl)c2[nH]c(Cc3ccc(F)cc3)nc2c1O)N1CCCC1 [Compound I-20] | 268 to 272 °C (dec.) | 2030 nM
O=C(c1nccs1)c1ccc2[nH]c(Cc3ccc(F)cc3)nc2c1O [Compound I-27] | 239 to 240 °C | 538 nM
Cc1nc2c(O)c(-c3nnc(Cc4ccccc4)o3)cc(Cl)c2[nH]1 [Compound I-35] | 255 to 257 °C | 704 nM
Cc1nc2c(O)c(-c3nnc(COc4ccccc4)o3)cc(Cl)c2[nH]1 [Compound I-37] | 266 to 268 °C | 1540 nM
O=C(c1ccc(Sc2ccc(F)cc2)o1)c1cc(Cl)c2cccnc2c1O [Compound I-63] | 120 to 122 °C | 1050 nM
O=C(O)c1cc(Cl)c2cc(Cc3ccc(F)cc3)cnc2c1O [Compound I-65] | 222 to 224 °C | 332 nM
